Reference: patent US7579356B2, “Thia-tetraazaacenaphthylene kinase inhibitors” (Janssen Pharmaceutica NV, priority 2005, dated 2009)

What follows are molecules tested against T1, EGFR (Homo sapiens, UniProt P00533) (assay: EGFR Kinase Assay). Settings: GST-EGFR, ATP 5 μM.
T1 construct: The intracellular portion of EGFR started at nucleotide 2189 (corresponding to amino acid 667) and ended at the termination codon; made in house; host or cells: Sf9 insect cells (baculovirus)
Format: biochemical
Source text: The EGFR kinase used was a fusion of Glutathione-S-Transferase (GST) and a PCR amplified intracellular portion of EGFR (Accession Number NM_005228). The intracellular portion of EGFR started at nucleotide 2189 (corresponding to amino acid 667) and ended at the termination codon. The portion was PCR amplified with primers that added the lambda attB sequences to each end, recombined into an entry vector, then into a GST destination vector (as described in Gateway Technologies Manual by Invitrogen Corporation, Carlsbad, Calif.).
The destination vector was recombined in the DH10BAC strain of bacteria to produce a bacmid. The bacmid was transfected into Sf 9 cells and the supernatant containing the baculovirus was collected. The GSTEGFR protein was purified using large cultures of Sf 9 cells infected with stock virus. After an appropriate period of time, the cells were collected and lysed. The GSTEGFR was then purified from the lysate on Glutathione-Sepharose columns (as described by Amersham Biosciences, Buckinghamshire, United Kingdom).
The EGFR substrate was prepared by biotinylating polyGluTyr (128 mg) (Sigma, St. Louis, Mo.) in a 1×PBS buffer incubated together with a 12-fold molar excess of Sulfo-NHS-LC-Biotin on ice for at least 2 hrs. The free biotin was separated from the biotinylated polyGluTyr on a gel filtration column.
A mixture of a 10× kinase buffer (500 mM Tris at pH 8.0, 100 mM Magnesium Chloride and 1 mM Sodium Vanadate), DTT (1 mM final from 500 mM stock), ATP (5 μM final from 10 mM stock), biotinylated polyGluTyr (10 μg/μL stock), γ-^33P ATP (10 μCl/μL stock) and water was added to each well (for a total of 90 μL/well) of a Streptavidin Flashplate (Perkin Elmer, Wellesley, Mass.).
Test compound in 100% DMSO (2 μL) was added to the appropriate wells. Diluted GSTEGFR (1:300 dilution in 50 mM Tris at pH 8.0 and 0.1% bovine serum albumin) (10 μL) was added to the wells to initiate the reactions.
The plates were incubated at 30° C. for 1 hr with shaking. The reacted contents were removed and the plates were sequentially washed three times with a 1×PBS stop buffer (300 μL without Magnesium and Calcium) and 100 mM EDTA. After the final wash, the same stop buffer (200 μL) was added to the wells. The plates were then sealed and read on the TopCount scintillation counter.
Test compounds were assayed in triplicate at 16 concentrations at half-log dilutions starting at 200 uM. A maximum and minimum signal for the assay was determined on each plate. The percent inhibition of a test compound was calculated according to the formula: […]
For a series of test concentrations, the IC50 was derived by graphing percent inhibition against the log of the concentrations tested for a given compound. For those compounds without an IC50, the inhibition values in percent are shown at a test concentration of 2 μM. For compounds with multiple values, each value represents a separate assay result.

T1 sequence (P00533 669-1210 limits assumed): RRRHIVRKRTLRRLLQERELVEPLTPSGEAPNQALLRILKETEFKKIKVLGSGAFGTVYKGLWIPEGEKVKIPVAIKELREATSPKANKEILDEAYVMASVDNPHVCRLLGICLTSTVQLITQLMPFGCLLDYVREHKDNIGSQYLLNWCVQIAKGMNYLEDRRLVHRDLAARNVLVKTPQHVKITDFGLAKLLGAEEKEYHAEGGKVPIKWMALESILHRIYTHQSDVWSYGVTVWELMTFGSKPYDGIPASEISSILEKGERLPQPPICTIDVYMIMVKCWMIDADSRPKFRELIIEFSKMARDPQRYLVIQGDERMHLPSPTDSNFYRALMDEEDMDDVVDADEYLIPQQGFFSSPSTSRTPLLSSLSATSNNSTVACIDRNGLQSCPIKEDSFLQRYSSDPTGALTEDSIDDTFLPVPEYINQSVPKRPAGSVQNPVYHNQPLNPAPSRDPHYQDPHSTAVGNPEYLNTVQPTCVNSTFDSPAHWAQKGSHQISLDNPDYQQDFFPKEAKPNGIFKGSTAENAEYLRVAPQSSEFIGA

Compound | IC50 [µM]
COc1ccc(NC(=O)c2sc3ncnc4c3c2NC(=O)N4c2ccc(F)c(Cl)c2)cc1OC [Cpd 2, 5-(3-chloro-4-fluoro-phenyl)-4-oxo-4,5-dihydro-3H-1-thia-3,5,6,8-tetraaza-acenaphthylene-2-carboxylic acid (3,4-dimethoxy-phenyl)-amide] | 0.037
O=C(Nc1nccs1)c1sc2ncnc3c2c1NC(=O)N3c1ccc(F)c(Cl)c1 [Cpd 4, 5-(3-chloro-4-fluoro-phenyl)-4-oxo-4,5-dihydro-3H-1-thia-3,5,6,8-tetraaza-acenaphthylene-2-carboxylic acid thiazol-2-ylamide] | 0.072
O=C(Nc1cccnc1)c1sc2ncnc3c2c1NC(=O)N3c1ccc(F)c(Cl)c1 [Cpd 5, 5-(3-chloro-4-fluoro-phenyl)-4-oxo-4,5-dihydro-3H-1-thia-3,5,6,8-tetraaza-acenaphthylene-2-carboxylic acid pyridin-3-ylamide] | 0.069
O=C(Nc1ccc(NCCCN2CCOCC2)nc1)c1sc2ncnc3c2c1NC(=O)N3c1ccc(F)c(Cl)c1 [Cpd 6, 5-(3-chloro-4-fluoro-phenyl)-4-oxo-4,5-dihydro-3H-1-thia-3,5,6,8-tetraaza-acenaphthylene-2-carboxylic acid [6-(3-morpholin-4-yl-propylamino)-pyridin-3-yl]-amide] | 0.083
O=C1Nc2c(-c3ccccc3)sc3ncnc(c23)N1c1ccc(F)c(Cl)c1 [Cpd 8, 5-(3-chloro-4-fluoro-phenyl)-2-phenyl-3H,5H-1-thia-3,5,6,8-tetraaza-acenaphthylen-4-one] | 0.542
O=C(Nc1ccc(CNC[C@H]2CCCO2)cc1)c1sc2ncnc3c2c1NC(=O)N3c1ccc(F)c(Cl)c1 [Cpd 17, 5-(3-chloro-4-fluoro-phenyl)-4-oxo-4,5-dihydro-3H-1-thia-3,5,6,8-tetraaza-acenaphthylene-2-carboxylic acid [4-({[(2R)-tetrahydro-furan-2-ylmethyl]-amino}-methyl)-phenyl]-amide] | 0.044
COc1cc(NC(=O)c2sc3ncnc4c3c2NC(=O)N4c2ccc(F)c(Cl)c2)ccc1O [Cpd 19, 5-(3-chloro-4-fluoro-phenyl)-4-oxo-4,5-dihydro-3H-1-thia-3,5,6,8-tetraaza-acenaphthylene-2-carboxylic acid (4-hydroxy-3-methoxy-phenyl)-amide] | 0.043
COc1cc(NC(=O)c2sc3ncnc4c3c2NC(=O)N4c2ccc(F)c(Cl)c2)ccc1OCCN1CCOCC1 [Cpd 20, 5-(3-chloro-4-fluoro-phenyl)-4-oxo-4,5-dihydro-3H-1-thia-3,5,6,8-tetraaza-acenaphthylene-2-carboxylic acid [3-methoxy-4-(2-morpholin-4-yl-ethoxy)-phenyl]-amide] | 0.03
COc1cc(NC(=O)c2sc3ncnc4c3c2NC(=O)N4c2ccc(F)c(Cl)c2)ccc1OCCCN1CCCCC1 [Cpd 21, 5-(3-chloro-4-fluoro-phenyl)-4-oxo-4,5-dihydro-3H-1-thia-3,5,6,8-tetraaza-acenaphthylene-2-carboxylic acid [3-methoxy-4-(3-piperidin-1-yl-propoxy)-phenyl]-amide] | 0.027
COc1cc(NC(=O)c2sc3ncnc4c3c2NC(=O)N4c2ccc(F)c(Cl)c2)ccc1OCCC1CCNCC1 [Cpd 22, 5-(3-chloro-4-fluoro-phenyl)-4-oxo-4,5-dihydro-3H-1-thia-3,5,6,8-tetraaza-acenaphthylene-2-carboxylic acid [3-methoxy-4-(2-piperidin-4-yl-ethoxy)-phenyl]-amide] | 0.042
NCc1ccc(NC(=O)c2sc3ncnc4c3c2NC(=O)N4c2ccc(F)c(Cl)c2)cn1 [Cpd 23, 5-(3-chloro-4-fluoro-phenyl)-4-oxo-4,5-dihydro-3H-1-thia-3,5,6,8-tetraaza-acenaphthylene-2-carboxylic acid (6-aminomethyl-pyridin-3-yl)-amide] | 0.027
C#Cc1cccc(N2C(=O)Nc3c(C(=O)Nc4ccc(CNC5CCNCC5)cc4)sc4ncnc2c34)c1 [Cpd 24, 5-(3-ethynyl-phenyl)-4-oxo-4,5-dihydro-3H-1-thia-3,5,6,8-tetraaza-acenaphthylene-2-carboxylic acid [4-(piperidin-4-ylaminomethyl)-phenyl]-amide] | 0.126
COc1cc(N2C(=O)Nc3c(C(=O)Nc4ccc(CN5CCCCC5)cc4)sc4ncnc2c34)c(Cl)c(OC)c1OC [Cpd 26, 5-(2-chloro-3,4,5-trimethoxy-phenyl)-4-oxo-4,5-dihydro-3H-1-thia-3,5,6,8-tetraaza-acenaphthylene-2-carboxylic acid (4-piperidin-1-ylmethyl-phenyl)-amide] | 9.26
COc1cc(NC(=O)c2sc3ncnc4c3c2NC(=O)N4c2cc(OC)c(OC)c(OC)c2)ccc1OCCN1CCOCC1 [Cpd 27, 4-oxo-5-(3,4,5-trimethoxy-phenyl)-4,5-dihydro-3H-1-thia-3,5,6,8-tetraaza-acenaphthylene-2-carboxylic acid [3-methoxy-4-(2-morpholin-4-yl-ethoxy)-phenyl]-amide] | 41.5
O=C1Nc2c([N+](=O)[O-])sc3ncnc(c23)N1c1ccc(F)c(Cl)c1 [Cpd 156, 5-(3-chloro-4-fluoro-phenyl)-2-nitro-3H,5H-1-thia-3,5,6,8-tetraaza-acenaphthylen-4-one] | 1.37
Nc1sc2ncnc3c2c1NC(=O)N3c1ccc(F)c(Cl)c1 [Cpd 157, 2-amino-5-(3-chloro-4-fluoro-phenyl)-3H,5H-1-thia-3,5,6,8-tetraaza-acenaphthylen-4-one] | 0.371
COc1ccc(CC(=O)Nc2sc3ncnc4c3c2NC(=O)N4c2ccc(F)c(Cl)c2)cc1OC [Cpd 158, N-[5-(3-chloro-4-fluoro-phenyl)-4-oxo-4,5-dihydro-3H-1-thia-3,5,6,8-tetraaza-acenaphthylen-2-yl]-2-(3,4-dimethoxy-phenyl)-acetamide] | 2.43
COc1ccc(C(=O)Nc2sc3ncnc4c3c2NC(=O)N4c2ccc(F)c(Cl)c2)cc1OC [Cpd 159, N-[5-(3-chloro-4-fluoro-phenyl)-4-oxo-4,5-dihydro-3H-1-thia-3,5,6,8-tetraaza-acenaphthylen-2-yl]-3,4-dimethoxy-benzamide] | 1.04

Same assay, conditions: test concentration of 2 μM; compounds without an IC50; read-out: EGFR inhibition in percent

Compound | inhibition at 2 µM [%]
COc1cc(N2C(=O)Nc3c(C(=O)Nc4ccc(CN5CCCCC5)cc4)sc4ncnc2c34)cc(OC)c1OC [Cpd 28, 5-(3,4,5-trimethoxy-phenyl)-4-oxo-4,5-dihydro-3H-1-thia-3,5,6,8-tetraaza-acenaphthylene-2-carboxylic acid (4-piperidin-1-ylmethyl-phenyl)-amide] | 15
